# Data: US10597388B2, “Pyridazinone herbicides” (FMC CORPORATION, priority 2014, dated 2020)
# Experiments:
# Test in all cases: Test D controlled growth environment herbicide test, pre- and postemergence
# Type in all cases: in vivo
# [1] = tested on: deadnettle (henbit deadnettle, Lamium amplexicaule)
# Excerpt: (§1) Seeds of plant species selected from bluegrass (annual bluegrass, Poa annua), blackgrass (Alopecurus myosuroides), Canada thistle (Cirsium arvense), canarygrass (Phalaris minor), chickweed (common chickweed, Stellaria media), geranium, cutleaf (cutleaf geranium, Geranium dissectum), galium (catchweed bedstraw, Galium aparine), bromegrass, downy (downy bromegrass, Bromus tectorum), field poppy (Papaver rhoeas), field violet (Viola arvensis), foxtail, green (green foxtail, Setaria viridis), deadnettle (henbit deadnettle, Lamium amplexicaule), ryegrass, Italian (Italian ryegrass, Lolium multiflorum), kochia (Kochia scoparia), lambsquarters (Chenopodium album), oilseed rape (Brassica napus), pigweed (Amaranthus retroflexus), chamomile (scentless chamomile, Matricaria inodora), Russian thistle (Salsola kali), speedwell (bird's-eye speedwell, Veronica persica), barley, spring (spring barley, Hordeum vulgare), wheat, spring (spring wheat, Triticum aestivum), buckwheat, wild (wild buckwheat, Polygonum convolvulus), mustard, wild (wild mustard, Sinapis arvensis), oat, wild (wild oat, Avena fatua), radish, wild (wild radish, Raphanus raphanistrum), windgrass (Apera spica-venti), barley, winter (winter barley, Hordeum vulgare), and wheat, winter (winter wheat, Triticum aestivum) were planted into a silt loam soil and treated preemergence with test chemicals formulated in a non-phytotoxic solvent mixture which included a surfactant.
# (§2) At the same time, these species were planted in pots containing Redi-Earth® planting medium (Scotts Company, 14111 Scottslawn Road, Marysville, Ohio 43041) comprising spaghnum peat moss, vermiculite, wetting agent and starter nutrients and treated with postemergence applications of the test chemicals formulated in the same manner. Plants ranged in height from 2 to 18 cm (1- to 4-leaf stage). Treated plants and controls were maintained in a controlled growth environment for 14 to 21 d after which time all species were compared to controls and visually evaluated. Plant response ratings, summarized in Table D, are based on a scale of 0 to 100 where 0 is no effect and 100 is complete control. A dash (-) response means no test result.
# [2] = tested on: blackgrass (Alopecurus myosuroides)
# Excerpt: as §1, §2
# [3] = tested on: Russian thistle (Salsola kali)
# Excerpt: as §1, §2
# [4] = tested on: windgrass (Apera spica-venti)
# Excerpt: as §1, §2
# [5] = tested on: wheat, winter (winter wheat, Triticum aestivum)
# Excerpt: as §1, §2
# [6] = tested on: foxtail, green (green foxtail, Setaria viridis)
# Excerpt: as §1, §2
# [7] = tested on: canarygrass (Phalaris minor)
# Excerpt: as §1, §2
# [8] = tested on: field violet (Viola arvensis)
# Excerpt: as §1, §2
# kochia (Kochia scoparia) = tested on: kochia (Kochia scoparia)
# Excerpt: as §1, §2
# [9] = tested on: chickweed (common chickweed, Stellaria media)
# Excerpt: as §1, §2
# [10] = tested on: lambsquarters (Chenopodium album)
# Excerpt: as §1, §2
# [11] = tested on: wheat, spring (spring wheat, Triticum aestivum)
# Excerpt: as §1, §2
# [12] = tested on: ryegrass, Italian (Italian ryegrass, Lolium multiflorum)
# Excerpt: as §1, §2
# [13] = Postemergence, 31 g ai/ha, scale 0 to 100 (0 no effect, 100 complete control)
# [14] = Postemergence, 125 g ai/ha, visual rating on scale 0 (no effect) to 100 (complete control), 14 to 21 d
# [15] = Postemergence, 250 g ai/ha, scale 0 to 100 (0 no effect, 100 complete control)
# [16] = Preemergence, 62 g ai/ha, scale 0 to 100 (0 no effect, 100 complete control)
# [17] = Preemergence, 125 g ai/ha, scale 0 to 100 (0 no effect, 100 complete control)
# [18] = Preemergence, 250 g ai/ha, scale 0 to 100 (0 no effect, 100 complete control)
# [19] = postemergence, 62 g ai/ha, scale 0 to 100, 0 no effect, 100 complete control
compound,measurement,setting,value
CC(=O)Oc1c(C)nn(C)c(=O)c1-c1c(C)sc2c(C)cc(C)cc12 [Compound 27],Deadnettle plant response rating,[1]; [13],5
same,"Plant response rating, Deadnettle",[1]; [14],30
same,"Plant response rating, Deadnettle",[1]; [15],60
same,"Plant response rating (scale of 0 to 100), Deadnettle","[1]; Preemergence, 31 g ai/ha",0
same,"Plant response rating, Deadnettle",[1]; [16],0
same,"Plant response rating, Deadnettle",[1]; [17],55
same,"Plant response rating, Deadnettle",[1]; [18],80
same,"Plant response rating, Deadnettle",[1]; [19],5
same,Blackgrass plant response rating,[2]; [13],75
same,"Plant response rating, Blackgrass",[2]; [14],90
same,"Plant response rating, Blackgrass",[2]; [15],90
same,"Plant response rating (scale of 0 to 100), Blackgrass","[2]; Preemergence, 31 g ai/ha",85
same,"Plant response rating, Blackgrass",[2]; [16],90
same,"Plant response rating, Blackgrass",[2]; [17],95
same,Blackgrass plant response rating,[2]; [18],100
same,"Plant response rating, Blackgrass",[2]; [19],80
same,Russian Thistle plant response rating,[3]; [13],65
same,"Plant response rating, Russian Thistle",[3]; [14],70
same,"Plant response rating, Russian Thistle",[3]; [15],70
same,"Plant response rating (scale of 0 to 100), Russian Thistle","[3]; Preemergence, 31 g ai/ha",0
same,"Plant response rating, Russian Thistle",[3]; [16],10
same,"Plant response rating, Russian Thistle",[3]; [17],65
same,"Plant response rating, Russian Thistle",[3]; [18],75
same,"Plant response rating, Russian Thistle",[3]; [19],75
same,Windgrass plant response rating,[4]; [13],75
same,"Plant response rating, Windgrass",[4]; [14],80
same,"Plant response rating, Windgrass",[4]; [15],90
same,"Plant response rating (scale of 0 to 100), Windgrass","[4]; Preemergence, 31 g ai/ha",75
same,"Plant response rating, Windgrass",[4]; [16],85
same,"Plant response rating, Windgrass",[4]; [17],100
same,"Plant response rating, Windgrass",[4]; [18],100
same,"Plant response rating, Windgrass",[4]; [19],75
same,"Wheat, Winter plant response rating",[5]; [13],0
same,"Plant response rating, Wheat, Winter",[5]; [14],5
same,"Plant response rating, Wheat, Winter",[5]; [15],10
same,"Plant response rating (scale of 0 to 100), Wheat, Winter","[5]; Preemergence, 31 g ai/ha",0
same,"Plant response rating, Wheat, Winter",[5]; [16],0
same,"Plant response rating, Wheat, Winter",[5]; [17],0
same,"Plant response rating, Wheat, Winter",[5]; [18],5
same,"Plant response rating, Wheat, Winter",[5]; [19],5
same,"Foxtail, Green plant response rating",[6]; [13],70
same,"Plant response rating, Foxtail, Green",[6]; [14],80
same,"Plant response rating, Foxtail, Green",[6]; [15],80
same,"Plant response rating (scale of 0 to 100), Foxtail, Green","[6]; Preemergence, 31 g ai/ha",95
same,"Plant response rating, Foxtail, Green",[6]; [16],95
same,"Plant response rating, Foxtail, Green",[6]; [17],100
same,"Plant response rating, Foxtail, Green",[6]; [18],100
same,"Plant response rating, Foxtail, Green",[6]; [19],80
same,Canarygrass plant response rating,[7]; [13],75
same,"Plant response rating, Canarygrass",[7]; [14],85
same,"Plant response rating, Canarygrass",[7]; [15],90
same,"Plant response rating (scale of 0 to 100), Canarygrass","[7]; Preemergence, 31 g ai/ha",85
same,"Plant response rating, Canarygrass",[7]; [16],95
same,"Plant response rating, Canarygrass",[7]; [17],100
same,"Plant response rating, Canarygrass",[7]; [18],100
same,"Plant response rating, Canarygrass",[7]; [19],80
same,Field Violet plant response rating,[8]; [13],75
same,"Plant response rating, Field Violet",[8]; [14],75
same,"Plant response rating, Field Violet",[8]; [15],85
same,"Plant response rating (scale of 0 to 100), Field Violet","[8]; Preemergence, 31 g ai/ha",80
same,"Plant response rating, Field Violet",[8]; [16],90
same,"Plant response rating, Field Violet",[8]; [17],95
same,"Plant response rating, Field Violet",[8]; [18],95
same,"Plant response rating, Field Violet",[8]; [19],70
same,Kochia plant response rating,kochia (Kochia scoparia); [13],45
same,"Plant response rating, Kochia",kochia (Kochia scoparia); [14],55
same,"Plant response rating, Kochia",kochia (Kochia scoparia); [15],75
same,"Plant response rating (scale of 0 to 100), Kochia","kochia (Kochia scoparia); Preemergence, 31 g ai/ha",0
same,"Plant response rating, Kochia",kochia (Kochia scoparia); [16],20
same,"Plant response rating, Kochia",kochia (Kochia scoparia); [17],30
same,"Plant response rating, Kochia",kochia (Kochia scoparia); [18],60
same,"Plant response rating, Kochia",kochia (Kochia scoparia); [19],55
same,Chickweed plant response rating,[9]; [13],95
same,"Plant response rating, Chickweed",[9]; [14],100
same,"Plant response rating, Chickweed",[9]; [15],100
same,"Plant response rating (scale of 0 to 100), Chickweed","[9]; Preemergence, 31 g ai/ha",100
same,"Plant response rating, Chickweed",[9]; [16],100
same,"Plant response rating, Chickweed",[9]; [17],100
same,"Plant response rating, Chickweed",[9]; [18],100
same,"Plant response rating, Chickweed",[9]; [19],100
same,Lambsquarters plant response rating,[10]; [13],80
same,"Plant response rating, Lambsquarters",[10]; [14],85
same,"Plant response rating, Lambsquarters",[10]; [15],85
same,"Plant response rating (scale of 0 to 100), Lambsquarters","[10]; Preemergence, 31 g ai/ha",100
same,"Plant response rating, Lambsquarters",[10]; [16],100
same,"Plant response rating, Lambsquarters",[10]; [17],100
same,"Plant response rating, Lambsquarters",[10]; [18],100
same,"Plant response rating, Lambsquarters",[10]; [19],85
same,"Wheat, Spring plant response rating",[11]; [13],0
same,"Plant response rating, Wheat, Spring",[11]; [14],10
same,"Plant response rating, Wheat, Spring",[11]; [15],20
same,"Plant response rating (scale of 0 to 100), Wheat, Spring","[11]; Preemergence, 31 g ai/ha",0
same,"Plant response rating, Wheat, Spring",[11]; [16],0
same,"Plant response rating, Wheat, Spring",[11]; [17],5
same,"Plant response rating, Wheat, Spring",[11]; [18],25
same,"Plant response rating, Wheat, Spring",[11]; [19],5
same,"Ryegrass, Italian plant response rating",[12]; [13],80
same,"Plant response rating, Ryegrass, Italian",[12]; [14],85
same,"Plant response rating, Ryegrass, Italian",[12]; [15],85
same,"Plant response rating (scale of 0 to 100), Ryegrass, Italian","[12]; Preemergence, 31 g ai/ha",90
same,"Plant response rating, Ryegrass, Italian",[12]; [16],100
same,"Plant response rating, Ryegrass, Italian",[12]; [17],100
same,"Plant response rating, Ryegrass, Italian",[12]; [18],100
same,"Plant response rating, Ryegrass, Italian",[12]; [19],85
